Measured values taken from patent US5066654A, “2-aryl-3-heterocyclicmethyl-3H-imidazo[4,5-b]pyridines as anxiolytics and anticonvulsants” (A. H. Robins Company, Incorporated, priority 1990, dated 1991).
Values joined by “and” are separate entries in the source; they are usually repeats but may differ in a detail not shown here. Identical values can stand only once. Like-named read-outs stand apart in the source and are kept apart here.

Legend:
[1] = biological target: benzodiazepine receptor; assay: inhibition of [^3 H]-flunitrazepam binding to the benzodiazepine receptor
Protocol: Anxiolytic activity was evaluated in vitro according to the method of Chiu et al. [Mol. Pharmacol. 21, 57 (1982)] by determining the IC50 for the inhibition of [^3 H]-flunitrazepam binding to the benzodiazepine receptor.
*Inhibition of [^3 Hflunitroazepam binding to the benzodiazepine

[2] = tested on: adult female mice; assay: SC-MET, subcutaneous Metrazole (pentylenetetrazol) test (chemically induced seizures); type: in vivo; conditions: for ED50: Mus musculus, sc, ED50 for protection
Protocol: (§1) Briefly, test compound was administered to adult female mice, followed by either electrical (60 Hz, 5 msec. pulse width […] intensity for 0.2 seconds) or chemical [Metrazole® (pentylenetetrazol)] challenge. […] Results are expressed either as percent protection at a given dose or as the ED50 for protection.
^+ SCMET = subcutaneous Metrazole ® test; results given as %
protection at a given dose (mg/kg) or ED50 (mg/kg).

[3] = tested on: mouse; assay: loss of righting reflex test procedure (ataxia); type: in vivo
Protocol: Compounds with anticonvulsant activity typically cause ataxia, an undesirable side effect, at some dose. Representative compounds of this invention were evaluated in a loss of righting reflex test procedure [A. P. Roszkowski, J. Pharmacol. Exp. Ther. 129, 75-81 (1960)]. Briefly, the compound to be evaluated was administered to a mouse which was then placed upside down in its cage. Failure to right itself within 20 seconds was considered to be loss of the righting reflex. Results are expressed as percent of mice losing righting reflex at a given dose.

[4] = tested on: mouse; assay: exploratory light/dark test procedure (anxiolytic activity); type: in vivo
Protocol: Anxiolytic activity also was evaluated in vivo in an exploratory […] test procedure [Young et al., Soc. Neurosci. Abs. 14,207 (1988) and Costall et al., Brit. J. Pharmacol. 93,985 (1988)]. Briefly, test compound was administered to a mouse which was placed in a two compartment light-dark activity monitoring box. Control animals typically move to the dark side of the box to avoid the bright light. Animals treated with anxiolytic agents spend more time exploring the lit side of the box than control animals. […]
The following table summarizes the results of representative compounds of this invention in the light/dark exploratory test procedure for anxiolytic activity. Compounds were compared with diazepam as a reference standard at each dose level.

[5] = tested on: adult female mice; assay: MES, maximal electroshock test (electrically induced seizures); type: in vivo; conditions: Mus musculus; for responders at 31.6 mg/kg / responders at 100 mg/kg: read-out: MES (% protection)
Protocol: as §1
**MES = Maximal electroshock test; results given as % protection at a
given dose (mg/kg) or ED50 (mg/kg).

[6] = [^3 H]-flunitrazepam, in vitro, read-out: ^3 H-Flu binding IC50

`Clc1ccc(-c2nc3ccc(Cl)nc3n2Cc2ncc[nH]2)cc1` [Example 10, 5-Chloro-2-(4-chlorophenyl)-3-(1H-imidazol-2-ylmethyl)-3H-imidazo[4,5-b]pyridine] gave an IC50 [1, 6] of 130 nM, an IC50 ([1]; obtained on reevaluation, read-out: ^3 H-Flu binding IC50 (reevaluation)) of 160 nM and an ED50 [2] of 8.6 mg/kg. The “% Loss of Righting Reflex” value ([3]; dose 100 mg/kg) was 0%, the “% of Time in Lit Area, Compound” value ([4]; dose 0.01 mg/kg) was 35% and the “% of Time in Lit Area, Compound” value ([4]; dose 0.1 mg/kg) was 37%. For the same molecule, the “% of Time in Lit Area, Compound” value ([4]; dose 3.16 mg/kg) was 49%, the “% of Time in Lit Area, Compound” value ([4]; dose 5.62 mg/kg) was 49% and the “% of Time in Lit Area, Compound” value ([4]; dose 10.0 mg/kg) was 40%. For the same molecule, the “% of Time in Lit Area, Compound (additional result)” value ([4]; dose 10 mg/kg, additional result in footnote) was 38% and the “sedation, Compound” value ([4]; mouse, in vivo, 17.8 mg/kg) was “sedation”.
`Clc1ccc(-c2nc3cccnc3n2Cc2ncc[nH]2)cc1` [Example 8, 2-(4-Chlorophenyl)-3-(1H-imidazol-2-ylmethyl)-3H-imidazo[4,5-b]pyridine] was tested, and the IC50 [1, 6] was 410 nM, the “SC-MET (% protection)” value ([2]; dose 31.6 mg/kg) was 0% and the responders at 31.6 mg/kg [5] was 0%. For the same molecule, the “% Loss of Righting Reflex” value ([3]; dose 31.6 mg/kg) was 0%.
For `Cc1ccc(-c2nc3cccnc3n2Cc2ccccn2)cc1` [Example 2, 2-(4-Methylphenyl)-3-(2-pyridinylmethyl)-3H-imidazo[4,5-b]pyridine], the IC50 [1, 6] was 3100 nM, the ED50 [2] was 48.7 mg/kg and the responders at 100 mg/kg [5] was 25%. The “% Loss of Righting Reflex” value ([3]; dose 100 mg/kg) was 0%.
With `CN1C(=O)CN=C(c2ccccc2)c2cc(Cl)ccc21` [Diazepam, diazepam, reference compound] the “% of Time in Lit Area, Diazepam” value ([4]; diazepam reference, row of dose 0.01 mg/kg) was 27%, the “% of Time in Lit Area, Diazepam” value ([4]; diazepam reference, row of dose 0.1 mg/kg) was 27% and the “% of Time in Lit Area, Diazepam” value ([4]; diazepam reference, row of dose 1.0 mg/kg, 1 mg/kg) was 28% and 26%. The “% of Time in Lit Area, Diazepam” value ([4]; diazepam reference, row of dose 3.16 mg/kg, 3.16 mg/kg) was 26% and 27% and 28%, the “% of Time in Lit Area, Diazepam” value ([4]; diazepam reference, row of dose 5.62 mg/kg) was 27% and the “% of Time in Lit Area, Diazepam” value ([4]; diazepam reference, row of dose 10.0 mg/kg, 10 mg/kg) was 26% and 28%. For the same molecule, the “sedation, Diazepam” value ([4]; diazepam reference, row of dose 17.8 mg/kg) was “sedation”, the “% of Time in Lit Area, Diazepam” value ([4]; diazepam reference, row of dose 31.6 mg/kg, 31.6 mg/kg) was 28% and 26% and the “% of Time in Lit Area, Diazepam (additional result)” value ([4]; dose of 10 mg/kg, additional result in footnote) was 28%.
`Cc1ccc(-c2nc3cccnc3n2Cc2nc(C)c[nH]2)cc1` [Example 12] showed an IC50 [1, 6] of 220 nM, an ED50 [2] of 14.8 mg/kg and a responders at 100 mg/kg [5] of 0%. For the same molecule, the “% Loss of Righting Reflex” value ([3]; dose 100 mg/kg) was 0%, the “% of Time in Lit Area, Compound” value ([4]; dose 1.0 mg/kg) was 38% and the “% of Time in Lit Area, Compound” value ([4]; dose 3.16 mg/kg) was 40%. The “% of Time in Lit Area, Compound” value ([4]; dose 10.0 mg/kg) was 51% and the “% of Time in Lit Area, Compound” value ([4]; dose 31.6 mg/kg) was 48%.
In the case of `Cc1ccc(-c2nc3cccnc3n2Cc2ncc[nH]2)cc1` [Example 9, 3-(1H-Imidazol-2-ylmethyl)-2-(4-methylphenyl)-3H-imidazo[4,5-b]pyridine], the IC50 [1, 6] is reported as 140 nM, the ED50 [2] is reported as 15.4 mg/kg and the responders at 31.6 mg/kg [5] is reported as 0%.
In the case of `Clc1ccc(-c2nc3cccnc3n2Cc2ccccn2)cc1` [Example 1, 2-(4-Chlorophenyl)-3-(2-pyridinylmethyl)-3H-imidazo[4,5-b]pyridine], the IC50 [1, 6] is reported as 7000 nM, the “SC-MET (% protection)” value ([2]; dose 100 mg/kg) is reported as 37.5% and the responders at 100 mg/kg [5] is reported as 0%. The “% Loss of Righting Reflex” value ([3]; dose 100 mg/kg) was 0%.
With `Cc1ccc(-c2nc3ccc(C)nc3n2Cc2ccccn2)cc1` [Example 6, 5-Methyl-2-(4-methylphenyl)-3-(2-pyridinylmethyl)-3H-imidazo[4,5-b]pyridine] the IC50 [1, 6] was 3900 nM, the ED50 [2] was 38.1 mg/kg and the responders at 100 mg/kg [5] was 12.5%. For the same molecule, the “% Loss of Righting Reflex” value ([3]; dose 100 mg/kg) was 0%, the “% of Time in Lit Area, Compound” value ([4]; dose 3.16 mg/kg) was 36% and the “% of Time in Lit Area, Compound” value ([4]; dose 10.0 mg/kg) was 38%.
For `Cc1c[nH]c(Cn2c(-c3ccc(Cl)cc3)nc3cccnc32)n1` [Example 11, 2-(4-Chlorophenyl)-3-(4-methyl-1H-imidazol-2-ylmethyl)-3H-imidazo[4,5-b]pyridine], the IC50 [1, 6] was 390 nM, the ED50 [2] was 16.8 mg/kg and the responders at 100 mg/kg [5] was 0%. The “% Loss of Righting Reflex” value ([3]; dose 100 mg/kg) was 0%, the “% of Time in Lit Area, Compound” value ([4]; dose 1.0 mg/kg) was 38% and the “% of Time in Lit Area, Compound” value ([4]; dose 3.16 mg/kg) was 40%. The “% of Time in Lit Area, Compound” value ([4]; dose 10.0 mg/kg) was 40% and the “% of Time in Lit Area, Compound” value ([4]; dose 31.6 mg/kg) was 53%.
With `Clc1ccc(-c2nc3ccc(Cl)nc3n2Cc2ccccn2)cc1` [Example 3, 5-Chloro-2-(4-chlorophenyl)-3-(2-pyridinylmethyl)-3H-imidazo[4,5-b]pyridine] the IC50 [1, 6] was 3300 nM, the “SC-MET (% protection)” value ([2]; dose 100 mg/kg) was 62.5% and the responders at 100 mg/kg [5] was 0%. The “% Loss of Righting Reflex” value ([3]; dose 100 mg/kg) was 0%.
Work on `Cc1ccc(-c2nc3ccc(Cl)nc3n2Cc2ncc[nH]2)cc1` [Example 5, 5-Chloro-3-(1H-imidazol-2-ylmethyl)-2-(4-methylphenyl)-3H-imidazo[4,5-b]pyridine] yielded an IC50 [1, 6] of 300 nM, an ED50 [2] of 6.92 mg/kg and a responders at 100 mg/kg [5] of 0%. The “% Loss of Righting Reflex” value ([3]; dose 100 mg/kg) was 0%.
With `Cc1ccc(-c2nc3ccc(Cl)nc3n2Cc2ccccn2)cc1` [Example 4, 5-Chloro-2-(4-methylphenyl)-3-(2-pyridinylmethyl)-3H-imidazo[4,5-b]pyridine] the IC50 [1, 6] was 1600 nM, the ED50 [2] was 38.8 mg/kg and the “% Loss of Righting Reflex” value ([3]; dose 100 mg/kg) was 0%.
In the case of `Cc1ccc2nc(-c3ccc(Cl)cc3)n(Cc3ccccn3)c2n1` [Example 7, 2-(4-Chlorophenyl)-5-methyl-3-(2-pyridinylmethyl)-3H-imidazo[4,5-b]pyridine], the IC50 [1, 6] is reported as 7300 nM, the ED50 [2] is reported as 29.4 mg/kg and the ED50 ([5]; ED50 for protection) is reported as 76 mg/kg. For the same molecule, the “% Loss of Righting Reflex” value ([3]; dose 100 mg/kg) was 62.5%.
